Experimental data as given in article PMC5447021, “TNF Lectin-Like Domain Restores Epithelial Sodium Channel Function in Frameshift Mutants Associated with Pseudohypoaldosteronism Type 1B” (Frontiers in Immunology, 2017).
“Also recorded” adds a separate entry of the source.

Legend:
[1] = test system: βE539A,E542A γE548A,E551A-ENaC (βM2γM2); assay: Whole-cell patch clamp, βM2γM2-ENaC; format: cell-based, human; conditions: HEK-293, 200 nM solnatide
Procedure: Point mutations of α-, β-, γ- and δ-hENaC and PHA1B frameshift mutations of α-hENaC were prepared with the QuikChange Lightning Site-Directed Mutagenesis Kit (Agilent Technologies, CA, USA). Mutagenic primers were designed individually with the Primer Design Program provided on the producer’s website or for the frameshift mutations the same base changes as reported in patients (see Table 2) were performed. Primers were ordered from Sigma-Aldrich, Vienna, Austria.
HEK-293 cells were transfected 1 day after cell seeding using X-tremeGENE HP DNA transfection reagent (Roche Diagnostics, Mannheim, Germany) according to the manufacturer’s protocol. A set of WT or mutant αβγ- or δβγ-hENaC, or α-, β-, γ-, or δ-hENaC alone was used, and the ratio of DNA to transfection reagent was 1:3. The expression was highest 48–72 h after transfection.
Electrophysiological experiments were performed as described in detail by Shabbir et al. ([16]). […] Currents were recorded with the patch clamp method in the whole-cell mode. The chamber contained 1 ml of the bath solution of the following composition (in mM): 145 NaCl, 2.7 KCl, 1.8 CaCl2, 2 MgCl2, 5.5 glucose, and 10 HEPES, adjusted to pH 7.4 with 1 M NaOH solution. Micropipettes were pulled from thin-walled borosilicate glass capillaries (Harvard Apparatus, Holliston, MA, USA) with a DMZ Zeitz Puller to obtain electrode resistances ranging from 2 to 5 MΩ. […]

αI68fs = assay: Membrane abundance of αI68fs; format: cell-based, human; conditions: 200 nM, relative to WT control (=1)
Procedure: Cell surface biotinylation was performed as previously described ([26]). In brief, A549 cells or transiently transfected HEK-293 cells were grown in 10 cm dishes in 37°C, 5% CO2 incubator in DMEM medium supplemented with 5% FBS. […] Medium was aspirated, and then cells were washed twice with 10 ml ice-cold phosphate-buffered saline (PBS), covered with 2.5 mg EZ-Link Sulfo-NHS-SS-Biotin (Thermo Scientific, Rockford, USA), dissolved in 10 ml ice-cold PBS, and incubated at 4°C with gentle agitation for 30 min. Fifty milliliters of quenching solution were added to cells; then cells were scraped in solution and transferred to fresh 50 ml tube. Cell suspension was centrifuged at 500 × g for 3 min. Supernatant was discarded, and 5 ml of Tris-buffered saline (TBS) was added to the cell pellet. The cell pellet was resuspended and centrifuged at 500 × g for 3 min. Supernatant was discarded and cell pellet was resuspended in lysis buffer containing protease inhibitor cocktail (10 µM pepstatin A, 10 µM phenylmethylsulfonyl fluoride, and 10 µM leupeptin) and transferred to fresh 1.5 ml centrifuge tube. Cell pellet was then homogenized on ice by ultrasonication using 1 s bursts and incubated on ice for at least 30 min. Intact cells and nuclei were pelleted by centrifugation at 10,000 × g for 2 min under cooling conditions. […] Exposed films were scanned and quantified using ImageJ (NIH, MD, USA). […]

[2] = test system: A549 and H441 cells or HEK-293 cells heterologously expressing human ENaC; set-up: method as in PMID 24077967, PMID 25029038; conditions: cited from earlier work

C[C@@H]1NC(=O)CNC(=O)[C@H](CCC(=O)O)NC(=O)[C@@H]2CCCN2C(=O)[C@H]([C@@H](C)O)NC(=O)[C@H](CCC(=O)O)NC(=O)[C@H](CCCNC(=N)N)NC(=O)[C@H](CCC(N)=O)NC(=O)CNC(=O)[C@@H](N)CSSC[C@@H](C(=O)O)NC(=O)[C@H](Cc2ccc(O)cc2)NC(=O)[C@H](Cc2c[nH]c3ccccc23)NC(=O)[C@@H]2CCCN2C(=O)[C@H](CCCCN)NC(=O)[C@H](C)NC(=O)[C@H](CCC(=O)O)NC1=O [solnatide, L-cysteine, L-cysteinylglycyl-L-glutaminyl-L-arginyl-L-α-glutamyl-L-threonyl-L-prolyl-L-α-glutamylglycyl-L-alanyl-L-α-glutamyl-L-alanyl-L-lysyl-L-prolyl-L-tryptophyl-L-tyrosyl-, cyclic (1→17)-disulfide]
Effect of solnatide on current (words) ([1]; n = 3): A small increase in the amiloride-sensitive Na^+ current was still observed; also recorded: still able to activate βM2γM2-ENaC (not significant) to an equal extent as WT βγ-ENaC
Effect of solnatide on current (words) ([1]; n = 3, listed as Solnatide): still increased the amiloride-sensitive sodium current in these mutants
Membrane abundance, solnatide 5 min (αI68fs; 5 min, own control 0.15 ± 0.06, p < 0.05 vs control): 0.25 ± 0.07
Membrane abundance, solnatide 10 min (αI68fs; 10 min, own control 0.15 ± 0.06, p < 0.01 vs control): 0.32 ± 0.11
Na^+ current-enhancing effect after PNGase F [2]: Elimination of the Na^+ current-enhancing effect
